# Reference: patent US8178727B2, “Bis(arylmethylidene)acetone compound, anti-cancer agent, carcinogenesis-preventive agent, inhibitor of expression of Ki-Ras, ErbB2, c-Myc and Cycline D1, β-catenin-degrading agent, and p53 expression enhancer” (National University Corporation Tohoku University, priority 2005, dated 2012)
# What was measured:
# colon cancer cells = conditions: Non-Patent Document 1; cited from earlier work
# β-catenin [1] = conditions: Non-Patent Document 1; cited from earlier work
# HCT116 cells = assay: Cell growth inhibition (Cell Counting Kit 8, Wst-8), 96 h exposure; assay type: cell-based; conditions: Homo sapiens, HCT-116, HCT116 colon cancer cells
# Description: (§1) The inhibitory efficacy of bis(arylmethylidene)-acetones on the development and growth of malignant tumor cells was examined. Curcumin and bis(arylmethylidene)-acetone compounds were dissolved in DMSO to obtain 50 mM compound solutions for storage. Sixteen human cancer cell lines (HCT116, DLD-1, SW620. LK87, PC3, MCF7, PK9, HuCCT-1, SH10TC, GCIY, G361, 8505c, HepG2, A431, ACHN, OVK18) were obtained from the Medical Cellular Resources Center of the Institute of Development, Aging, and Cancer at Tohoku University, Japan. These cells were cultured at 37° C. under 5% CO2 conditions using as a culture medium RPMI1640 (Sigma Aldrich) supplemented with 10% fetal bovine serum and kanamycin (Wako Pure Chemical Industries: final concentration, […]).
# (§2) Three human colon-cancer cell lines (DLD-1, HCT116, SW620) were used in screening for cell growth inhibitory efficacy. The test compounds (bis(arylmethylidene)-acetones) were added to the culture media at the target concentrations, and exposure to the compounds was then continued for 96 hours in order to investigate not only acute cell damages but also effects on the cells, involving intracellular metabolic responses and others. The cell growth inhibitory efficacy was then evaluated with Cell Counting Kit 8 (Wst-8 Test, Dojindo Laboratories, Japan). In this analysis method, tetrazolium salt Wst-8 is degraded by reduced form nicotinamide adenine dinucleotide (nicotinamide adenine dinucleotide H; NADH). The activity of NADH is maintained only inside viable cells, and Wst-8 becomes colored upon degradation. The optical absorbance at 450 nm is measured, whereby the number of viable cells can be indirectly estimated.
# (§3) Each cell line was placed on a 96-well microtiter plate at a cell density of 2500 to 5000 cells/100 μL/well in accordance with the growth rate of the cell line. After cell cultivation for 24 hours, […] medium containing each compound was added. The final concentration of each test compound is 0, 0.1, 0.25, 0.5, 1, 2.5, 5, 10, 25, 50, and 100 μM (11 levels). The maximum final concentration of DMSO used as a solvent was 1%. After culturing for 96 hours, the medium was aspirated away, followed by washing with PBS. Next, 100 μL of a medium containing a solution of Cell Counting Kit 8 at 1/10 (v/v) was added. Culturing was then continued for one hour. Thereafter, each optical absorbance at 450 nm (620 nm background) was measured with an MPR-A4i microplate reader (Tosoh, Japan). A curve of the inhibition of cell growth was constructed using the measured optical absorbances.
# DLD-1 cells [2] = assay: as above; assay type: cell-based; conditions: Homo sapiens, DLD-1 colon cancer cells
# Description: as §1, §2, §3
# SW620 cells = assay: as above; assay type: cell-based; conditions: Homo sapiens, SW-620, SW620 colon cancer cells
# Description: as §1, §2, §3
# p53 = assay: Western blot of p53 gene product expression; assay type: cell-based, human; conditions: FIG. 11
# Description: (§4) Western-blot analysis was performed in the following manner:
# (§5) After HCT116 cells were treated with each test compound, plate-adhered cells were recovered along with cells suspended in supernatants, centrifuged, and pelleted. The cells were then lysed with a lysis solution (40 mM Tris-HCl, 1% Triton X-100, 2 mM MgCl2) supplemented with 200-μM phenylmethanesulfonyl fluoride (PMSF), 500-μM benzamidine, and 1-μg/mL leupeptin. After the mixture was allowed to stand on ice for 30 minutes, it was centrifuged for 10 minutes at 4° C. and 10000×g, and supernatants were recovered. To the resultant supernatant was added equimolarly 2× sample buffer (0.1 M Tris-HCl (pH 6.8), 4% SDS, 20% glycerol, and 12% β-mercaptoethanol), and the mixture was shaken for 3 minutes at 4° C., then heated to 95° C. for 4 minutes, and then stored at −20° C. until use. The cell lysates were phoresed on 8% SDS-PAGE, transferred to a Hybond-P membrane (Amersham Biosciences), and made to react with various monoclonal antibodies described below.
# (§6) Monoclonal antibodies: anti-actin antibody (A2066, Sigma Aldrich), anti-β-catenin antibody (6101 53, BD-transduction Laboratories), anti-p53 antibody (FL393: sc-6243HRP), anti-cyclin D1 antibody (M-20: sc-718), anti-c-Myc antibody (9E10: sc-40), anti-k-Ras-2B antibody (C-19: sc-521), and anti-c-ErbB2 antibody (A0485, DAKO Cytomation).
# Curcumin is known to have activity in degrading p53 gene products. Degradation, genetic expression reduction, instability, or other deficiencies of the tumor suppressor gene p53 gene products, result in disadvantageous conditions as concerns cell malignancy and tendency to become cancerous.
# DLD-1 cells [3] = assay: Cell cycle / apoptosis-inducing activity by flow cytometry (FACScan); assay type: cell-based, human
# Description: The activity of test compounds in cell cycle (apoptosis-inducing activity) was analyzed with a flow cytometer (FACScan). […] The cells attached to the plates are then harvested together with the cells suspended in the medium, centrifuged, and pelleted, followed by removal of supernatants. The collected cells were washed twice with PBS, then fixed with 70% ethanol for 30 minutes or more at 4° C., then washed with PBS once more, suspended in PBS supplemented with RNaseA (final concentration: 50 μg/mL; Qiagen), and incubated for 20 minutes at 37° C. Centrifugation was performed, and the supernatant was removed, after which the nuclei were stained using a solution of propidium iodide ([…]). Filtration was then performed using a nylon mesh having a pore size of 50 μm, and a DNA histogram was analyzed with a FACScan flow cytometer ([…]). The cellular fractions of subG1 phase, G0/G1 phase, S phase, and G2/M phase were determined by calculation using macCycle (Phoenix Flow Systems).
# β-catenin [4] = assay: Western blot of β-catenin degrading activity; assay type: cell-based, human
# Description: Western-blot analysis was used to investigate effects on the expression of oncogene products, ErbB2, c-Myc, and Cyclin D1, whose activity is enhanced in a variety of cancer cells, and to investigate the activity of degrading β-catenin, which plays an important role in the initial stages of carcinogenesis to the formation and development of tumors.
# as §4, §5, §6
# [5] = cited from earlier work
# colon-cancer cells = assay: Growth inhibition compared with anti-cancer agents 5-FU, CPT11, CDDP (FIG. 6); assay type: cell-based, human
# Description: as §1, §3
# Stored solutions of three anti-cancer agents: 5-FU, CDDP, and CPT11, prepared beforehand (1 mM), were suitably diluted prior to use, and also added to culture media.
# [6] = test system: melanoma and breast cancer cells; conditions: Non-Patent Document 2; cited from earlier work
SMILES,concentration inhibiting the growth of colon cancer cells (colon cancer cells),concentration degrading β-catenin (β-catenin [1]),IC50 (HCT116 cells),IC50 (DLD-1 cells [2]),IC50 (SW620 cells),transient drop in expression of p53 6 to 12 hours after administration (p53),sub-G1 fraction (apoptosis-induced cell death) (DLD-1 cells [3]; curcumin (20 μM in method)),concentration at which β-catenin degrading activity is displayed (β-catenin [4]; FIG. 9),water-solubility [5],"growth inhibitory activity relative to 5-FU, CPT11 and CDDP (colon-cancer cells)",efficacy relative to curcumin [6],"concentration arresting the cell cycle at the G2/M phase (DLD-1 cells [3]; DLD-1 cells, flow cytometry)","concentration at which β-catenin degrading activity is displayed (β-catenin [4]; FIG. 9, listed as BDMPP)"
"COc1cc(/C=C/C(=O)CC(=O)/C=C/c2ccc(O)c(OC)c2)ccc1O [curcumin, (1E,6E)-1,7-bis(4-hydroxy-3-methoxyphenyl)-1,6-heptadiene-3,5-dione, reference compound]",20 µM,15 µM,8 µM,8 µM,10 µM,transient drop,not substantially observed,20.0 µM,poor,,,,
"COc1ccc(C=CC(=O)C=Cc2ccc(OC)c(OC)c2)cc1OC [GO-035, 1,5-Bis(3,4-dimethoxyphenyl)-penta-1,4-dien-3-one, reference compound]",,,2.5 µM,2 µM,3.5 µM,,,5.0 µM,,much stronger,1.3 to 2.1 times,5 µM,5 µM
